According to patent publication US9155714B2, “Compositions comprising an aromatic alcohol and a TRPV-1 antagonist, and uses thereof” (JOHNSON & JOHNSON CONSUMER INC., priority 2013, dated 2015):
“And” between values parts separate entries of the source, which are not always exact repeats. Equal entries are not always repeated. One block for each molecule: values may come before it.

How the values were obtained:
Experiment in all cases: Calcium Flux Test, activity as TRPV-1 agonist
Assay type in all cases: cell-based
[1] = molecular target: T1, human vanilloid receptor-1 (TRPV-1) (Homo sapiens, UniProt Q8NER1)
T1 construct: host or cells: HEK293
T1 sequence (Q8NER1 whole entry): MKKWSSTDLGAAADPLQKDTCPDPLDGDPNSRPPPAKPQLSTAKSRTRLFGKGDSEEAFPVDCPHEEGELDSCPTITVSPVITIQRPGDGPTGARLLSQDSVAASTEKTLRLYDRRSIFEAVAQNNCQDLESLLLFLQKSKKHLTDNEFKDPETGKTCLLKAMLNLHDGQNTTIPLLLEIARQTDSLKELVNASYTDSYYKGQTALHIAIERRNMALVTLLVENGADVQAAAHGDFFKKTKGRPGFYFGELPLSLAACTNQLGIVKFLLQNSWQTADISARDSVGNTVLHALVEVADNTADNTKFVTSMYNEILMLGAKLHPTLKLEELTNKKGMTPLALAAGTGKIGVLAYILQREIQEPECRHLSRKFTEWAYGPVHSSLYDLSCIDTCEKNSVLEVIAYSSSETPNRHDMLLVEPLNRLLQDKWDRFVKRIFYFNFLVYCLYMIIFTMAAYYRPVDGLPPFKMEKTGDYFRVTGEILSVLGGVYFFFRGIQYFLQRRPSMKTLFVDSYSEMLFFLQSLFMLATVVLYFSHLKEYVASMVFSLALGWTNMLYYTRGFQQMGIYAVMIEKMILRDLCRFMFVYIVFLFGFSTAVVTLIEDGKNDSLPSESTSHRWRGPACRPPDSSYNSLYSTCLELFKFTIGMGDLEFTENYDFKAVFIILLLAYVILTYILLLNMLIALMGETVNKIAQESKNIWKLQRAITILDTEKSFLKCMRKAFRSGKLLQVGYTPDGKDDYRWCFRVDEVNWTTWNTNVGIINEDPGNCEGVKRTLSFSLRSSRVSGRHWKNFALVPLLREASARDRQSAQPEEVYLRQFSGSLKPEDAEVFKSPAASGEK
Description: (§1) The Calcium Flux Test is performed in the following manner: Recombinant HEK293 cells expressing human vanilloid receptor-1 (TRPV-1; accession number AF196175, EMD Millipore, Billerica, Mass.) are grown in D-MEM/F-12 media (Life Technologies, Grand Island, N.Y.) supplemented with 10% fetal bovine serum, 1% non essential amino acids and 400 μg/mL Geneticin (Gibco, Life Technologies). Cells are plated at a concentration of 15,000 cells per well on poly-D-lysine-coated 384 well plates and incubated overnight at 5% CO2 and 37° C. After incubation, culture media is removed from the wells and replaced with 50 μL per well of Fluo-8 No Wash dye solution (#36315, AAT Bioquest, Sunnyvale, Calif.). The Fluo-8 dye solution is prepared by mixing 20 uL of Fluo-8 NW with 30 mL of 0.33× Pluronic® F127 Plus (BASF of Ludwigshafen, Germany) in assay buffer (1×HBSS+2% of HEPES). Fluo-8 dye is incubated for 30 minutes at room temperature. Intracellular calcium (Ca^2+) flux is monitored upon exposure to aromatic alcohol in DMSO vehicle by measuring fluorescence intensity at Ex/Em 490/525 on a Functional Drug Screening System (FDSS; Hamamatsu, […]). Measurements are taken every second for a period of 4 minutes. […] Statistical differences are obtained using One Way ANOVA with Tukey Post-hoc test; statistical significance is defined as P≦0.05.
(§2) Phenoxyethanol was tested at a series of concentrations in DMSO for activity as a TRPV-1 agonist according to the Calcium Flux Test described above. Capsaicin was used as a positive control.
(§3) Maximum RFU values for treatment with phenoxyethanol or capsaisin were compared to the Maximum RFU for a DMSO vehicle alone. Concentrations of phenoxyethanol and capsaicin are reported in milimolar (mM) and nanomolar (nM), respectively.
(§4) Benzyl alcohol and sodium bicarbonate were tested using the Calcium Flux Test.
(§5) Benzyl alcohol and phenethyl alcohol were tested at a series of concentrations in DMSO for activity as a TRPV-1 agonist as described in Example 1. Concentrations of benzyl alcohol and phenethyl alcohol are reported in units of % w/v.

[2] = molecular target: T1, human vanilloid receptor-1 (TRPV-1); parameters: key: **: statistically significant; n/s: not statistically significant
Description: as §1, §2, §3, §4, §5

[3] = molecular target: T1, human vanilloid receptor-1 (TRPV-1); parameters: key: **: Statistically significant; n/s: Not statistically significant
Description: as §1, §2, §3, §4, §5

intracellular calcium flux in TRPV-1-transfected HEK cells (result in words) [1]: dose dependent increases
Maximum RFU (mean ± SD) ([1]; capsaicin 0.0381 nM alone): 10.19 ± 2.94 RFU
Maximum RFU (mean ± SD) ([1]; capsaicin 0.1526 nM alone): 29.34 ± 8.18 RFU
Maximum RFU (mean ± SD) ([1]; capsaicin 0.6104 nM alone): 121.32 ± 46.41 RFU
Maximum RFU (mean ± SD) ([1]; capsaicin 2 nM alone): 253.47 ± 24.63 RFU
Maximum RFU (mean ± SD) ([1]; capsaicin 10 nM alone): 348.17 ± 5.56 RFU
Maximum RFU (mean ± SD) ([1]; capsaicin 39 nM alone): 405.53 ± 11.25 RFU
Maximum RFU (mean ± SD) ([1]; capsaicin 156 nM alone): 491.07 ± 21.10 RFU
Maximum RFU (mean ± SD) ([1]; capsaicin 625 nM alone): 604.13 ± 32.46 RFU
Maximum RFU (mean ± SD) ([1]; capsaicin 2500 nM alone): 617.87 ± 34.14 RFU
Maximum RFU (mean ± SD) ([1]; capsaicin 10000 nM alone): 698.83 ± 30.57 RFU
P < 0.05 Compared to Vehicle ([2]; capsaicin 0.0381 nM): n/s
P < 0.05 Compared to Vehicle ([2]; capsaicin 0.1526 nM): n/s
P < 0.05 Compared to Vehicle ([2]; capsaicin 0.6104 nM): **
P < 0.05 Compared to Vehicle ([2]; capsaicin 2 nM): **
P < 0.05 Compared to Vehicle ([2]; capsaicin 10 nM): **
P < 0.05 Compared to Vehicle ([2]; capsaicin 39 nM): **
P < 0.05 Compared to Vehicle ([2]; capsaicin 156 nM): **
P < 0.05 Compared to Vehicle ([2]; capsaicin 625 nM): **
P < 0.05 Compared to Vehicle ([2]; capsaicin 2500 nM): **
P < 0.05 Compared to Vehicle ([2]; capsaicin 10000 nM): **
SMILES: COc1cc(CNC(=O)CCCC/C=C/C(C)C)ccc1O [Capsaicin, capsaicin]
Maximum RFU (mean ± SD) ([1]; capsaicin 100 nM alone (0 antagonist)): 647.05 ± 33.18 RFU and 849.62 ± 7.02 RFU and 1006.91 ± 74.51 RFU
Maximum RFU (mean ± SD) ([1]; capsaicin 300 nM alone (0 nM antagonist)): 860.95 ± 33.14 RFU and 875.05 ± 55.11 RFU

intracellular calcium flux in TRPV-1-transfected HEK cells (result in words) [1]: do not Induce Calcium Flux
Maximum RFU (mean ± SD) ([1]; sodium bicarbonate 0.03125 mM): 109.99 ± 1.37 RFU
Maximum RFU (mean ± SD) ([1]; sodium bicarbonate 0.0625 mM): 102.15 ± 4.19 RFU
Maximum RFU (mean ± SD) ([1]; sodium bicarbonate 0.125 mM): 114.34 ± 6.46 RFU
Maximum RFU (mean ± SD) ([1]; sodium bicarbonate 0.25 mM): 124.90 ± 8.41 RFU
Maximum RFU (mean ± SD) ([1]; sodium bicarbonate 0.5 mM): 3.39 ± 2.66 RFU
P < 0.05 Compared to Vehicle ([3]; sodium bicarbonate 0.03125 mM): n/s
P < 0.05 Compared to Vehicle ([3]; sodium bicarbonate 0.0625 mM): n/s
P < 0.05 Compared to Vehicle ([3]; sodium bicarbonate 0.125 mM): n/s
P < 0.05 Compared to Vehicle ([3]; sodium bicarbonate 0.25 mM): **
P < 0.05 Compared to Vehicle ([3]; sodium bicarbonate 0.5 mM): n/s
SMILES: O=C([O-])O.[Na+] [Sodium Bicarbonate, sodium bicarbonate]
